How the values were obtained:
Type in all cases: in vivo
[1] = Sugar substitution in sweetened dark chocolate, calibrated panel
Source text: The percentages in the table are expressed by weight.
The reference product (Formula 1 of Table 11) contained a commercial chocolate with 70% cacao content (Lindt®) and 6% of powdered sugar.
Along all the assays performed, the goal was to maximize the sucrose substitution while maintaining the same overall taste profile. A calibrated panel was not able to distinguish the reference from the different prototypes tested.
The method used for preparing the dark chocolate products of this assay was as follows. Firstly, 1% solution of NHDC in glycerol was prepared by gradually adding 1 g of NHDC to 99 g of glycerol, mixing and heating to 60° C. for 15 minutes, until a transparent solution is obtained. The solution was left to cool off to room temperature. The dark chocolate was weighed and heated to 45° C. and, when the chocolate was completely melted, powdered sugar was added and, optionally, also the 1% NHDC glycerol solution or the composition of Example B, and the mixture was then thoroughly mixed. The mixture was heated until reaching 45° C., then it was let to cool to 30° C., and then it was poured into molds (6 g/piece). The molds with the chocolate were put in the fridge for a quicker hardening.

[2] = Masking bitterness of quinine, test panel, equibitter solution; conditions: 250 ppm quinine
Experimental: The bitter masking effect against quinine was assayed, following an analogous procedure to the one used in Example 10 for paracetamol.
The following substances were assayed: NHDC alone, beta-cyclodextrin alone, a composition comprising NHDC and beta-cyclodextrin in a molar ratio 1:1 (Example F) and a composition comprising NHDC and beta-cyclodextrin in a molar ratio 1:3 (Example G).
Analogously to Example 10, several aqueous solutions were prepared, each containing 250 ppm of quinine and different concentrations of the tested substance, namely, 5, 25, 50, 75 and 100 ppm. For each tested solution, a test panel determined the equibitter quinine solution, and the masking effect was calculated using a formula analogous to formula III (substituting 5000 with […]).
The masking synergies between beta-cyclodextrin and NHDC in Examples F and G were calculated following an analogous procedure to the one disclosed in Example 10. Therefore, using the molecular weight of each component, the amounts of beta-cyclodextrin and NHDC contained in each amount of the combinations of Examples F and G were calculated and, then, the antibittering contribution of each component was calculated on the basis of the data of Table 19. The expected masking effect was calculated as the sum of the contributions of each component, and, finally, the masking synergy was calculated (using Formula IV).

[3] = Masking bitterness of paracetamol, calibrated test panel, equibitter solution; conditions: for Masking effect (real): 5000 ppm paracetamol
Experimental: The bitter masking effect against paracetamol was assayed. The anti-bittering effect was measured as a dose-response profile vs. a solution of paracetamol.
The following substances were assayed: NHDC alone, gamma-cyclodextrin alone and compositions comprising NHDC and gamma-cyclodextrin in a molar ratio 1:3 (Example B), 1.5:1 (Example C), 1:6 (Example D) and 1:10 (Example E).
For evaluating the masking effect of each substance, several aqueous solutions were prepared, each containing 5000 ppm of paracetamol and different concentrations of the tested substance, namely, 5, 25, 50, 75 and 100 ppm.
A calibrated test panel compared each solution with several solutions of paracetamol in water at different concentrations, and determined the equibitter paracetamol solution. The equibitter solution was calculated as the average of all the evaluations of the panel.
The masking effect was then calculated from the reference amount of paracetamol contained in each tested solution (5000 ppm) and the amount of paracetamol in the equibitter solution, using the following formula (Formula III): […]
For calculating the masking synergies between gamma-cyclodextrin and NHDC, first, for each amount of the combination (Examples A-E), using the molecular weight of each component, the amounts of gamma-cyclodextrin and NHDC contained therein were calculated. For example, 100 ppm of Example B contain 13.61 ppm of NHDC and 86.39 ppm of gamma-cyclodextrin. Then, the antibittering contribution of each component in the composition was calculated, on the basis of the data of Table 13. For example, 13.61 ppm of NHDC provide 9.44% masking effect and 86.39 ppm of gamma-cyclodextrin provide 5.46% masking effect (the antibittering effects for each specific concentration was calculated by interpolation of the data points in Table 13). Therefore, the expected masking effect is calculated as the sum of the contributions of each component. For example, the expected masking effect of 100 ppm of Example B is 14.90 (i.e., 9.44 plus 5.46).
Finally, the masking synergy is calculated using Formula IV: […]
The masking effect of Examples C (NHDC:gCD 1.5:1), D (NHDC:gCD 1:6) and E (NHDC:gCD 1:10) was also evaluated. Aqueous solutions were prepared, each one of them containing 5000 ppm of paracetamol and different concentrations of each one of the tested formulations Ex. C-E, namely, 25 and 50 ppm. Results are disclosed in Tables 15 to 17.

[4] = Taste profile by calibrated taste panel at concentrations equisweet to 3% sucrose; conditions: 0- to 5-point scale
Experimental: The overall taste profile achieved with the sweetening composition of the present invention was evaluated and compared with the target taste profile of sucrose.
For this assay, all samples were evaluated at the same sweetness level, so each sample was used at a concentration which was equisweet to 3% sucrose. For each sample, the following parameters were evaluated: • Time to first sweetness detection • Time to maximum sweetness • Lingering (time for the sweetness to disappear) • Off-flavour: menthol, liquorice (any tastes that are different from sweetness) • Mouthfeel (density, i.e., the perceived viscosity in the mouth)
These evaluations were carried out by a calibrated taste panel, and conducted at room temperature.
Each of those parameters was evaluated on a 0- to 5-point scale. The values for sucrose were the reference, and were considered the target to emulate.

COc1ccc(CCC(=O)c2c(O)cc(O[C@@H]3O[C@H](CO)[C@@H](O)[C@H](O)[C@H]3O[C@@H]3O[C@@H](C)[C@H](O)[C@@H](O)[C@H]3O)cc2O)cc1O [NHDC, 1-[4-[[2-O-(6-Deoxy-α-L-mannopyranosyl)-β-D-glucopyranosyl]oxy]-2,6-dihydroxyphenyl]-3-(3-hydroxy-4-methoxyphenyl)propan-1-one]
Amount used for the maximum sugar substitution [1]: 3 ppm
Maximum sugar substitution without changing the taste profile ([1]; reference with 6% powdered sugar): 10%
Masking effect (real) ([2]; tested substance 5 ppm): 5.00%
Masking effect (real) ([2]; tested substance 25 ppm): 13.33%
Masking effect (real) ([2]; tested substance 50 ppm): 30.00%
Masking effect (real) ([2]; tested substance 75 ppm): 48.33%
Masking effect (real) ([2]; tested substance 100 ppm): 50.00%
Equibitter paracetamol solution ([3]; 5000 ppm paracetamol + 100 ppm tested substance): 3266.7 ppm
Masking effect (real) ([3]; tested substance 5 ppm): 6.00%
Masking effect (real) ([3]; tested substance 25 ppm): 14.00%
Masking effect (real) ([3]; tested substance 50 ppm): 15.33%
Masking effect (real) ([3]; tested substance 75 ppm): 27.00%
Masking effect (real) ([3]; tested substance 100 ppm): 34.67%
Lingering [4]: 4.00
Mouthfeel (density) [4]: 1.75
Off-flavour: menthol, licorice [4]: 3.25
Time to first sweetness [4]: 3.75
Time to maximum sweetness [4]: 4.25
Total sweetness [4]: 5.00
